Structures are written as SMILES.

The target in the assay is T1, Tubulin (Sus scrofa, UniProt P02550+P02554).
T1 construct: Tubulin is purified from pig brain according to published methods; from tissue; host or cells: pig brain
T1 sequence (P02550 whole entry): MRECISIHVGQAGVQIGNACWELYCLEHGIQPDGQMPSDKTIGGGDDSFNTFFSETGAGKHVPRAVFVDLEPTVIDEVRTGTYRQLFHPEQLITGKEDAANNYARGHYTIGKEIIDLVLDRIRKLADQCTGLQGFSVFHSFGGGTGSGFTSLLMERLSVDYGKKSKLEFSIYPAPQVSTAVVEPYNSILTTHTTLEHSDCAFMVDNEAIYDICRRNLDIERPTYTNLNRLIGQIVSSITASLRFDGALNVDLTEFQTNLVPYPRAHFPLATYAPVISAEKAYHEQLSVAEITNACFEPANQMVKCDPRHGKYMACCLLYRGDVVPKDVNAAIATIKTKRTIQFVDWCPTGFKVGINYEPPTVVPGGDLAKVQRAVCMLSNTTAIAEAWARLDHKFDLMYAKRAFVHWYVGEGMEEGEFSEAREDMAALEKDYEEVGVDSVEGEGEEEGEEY
T1 sequence (P02554 whole entry): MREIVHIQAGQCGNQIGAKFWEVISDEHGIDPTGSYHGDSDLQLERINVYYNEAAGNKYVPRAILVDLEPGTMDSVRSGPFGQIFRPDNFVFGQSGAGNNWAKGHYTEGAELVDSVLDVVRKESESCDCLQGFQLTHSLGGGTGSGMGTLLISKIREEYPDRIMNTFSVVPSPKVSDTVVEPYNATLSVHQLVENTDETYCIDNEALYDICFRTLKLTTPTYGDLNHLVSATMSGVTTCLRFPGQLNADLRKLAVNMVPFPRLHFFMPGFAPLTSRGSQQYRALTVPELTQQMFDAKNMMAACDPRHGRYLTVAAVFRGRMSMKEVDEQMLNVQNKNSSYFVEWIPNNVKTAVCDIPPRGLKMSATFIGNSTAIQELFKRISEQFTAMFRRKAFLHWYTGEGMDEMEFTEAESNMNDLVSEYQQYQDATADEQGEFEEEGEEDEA
Nature of the assay: Evaluation of the inhibition of tubulin polymerization (turbidimetry at 350 nm). In kind it is biochemical. As to conditions: concentration that inhibits the rate of polymerization by 50%; pig brain tubulin 10 μM. On the procedure:
Briefly, the brains are ground and centrifuged in an extraction buffer. The tubulin contained in the supernatant of the extract undergoes two successive cycles of polymerization at 37° C. and depolymerization at 4° C., before being separated from the MAPs (Microtubule Associated Proteins) by chromatography on a phosphocellulose P11 column (Whatman). […] It is stored in a buffer known as RB/2 30% glycerol, the composition of which is 50 mM MES-NaOH [2-(N-morpholino)ethanesulphonic acid], pH 6.8; 0.25 mM MgCl2; 0.5 mM EGTA; 30% glycerol (v/v), 0.2 mM GTP (guanosine-5′-triphosphate).
The polymerization of tubulin to microtubules is monitored by turbidimetry as follows: the tubulin is adjusted to a concentration of 10 μM (1 mg/ml) in RB/2 30% glycerol buffer to which 1 mM GTP and 6 mM MgCl2 are added. […] The increase in the turbidity of the solution is monitored at 350 nm.
The products are dissolved at 10 mM in DMSO and added at variable concentrations (0.5 to 10 μM) to the tubulin solution before polymerization.
`O=C(c1cc[nH]c1)c1n[nH]c2c1C=CC(c1ccccc1)(c1ccccc1)C2` [Example 5-4, (6,6-Diphenyl-6,7-dihydro-1H-indazol-3-yl)-(1H-pyrrol-3-yl)methanone]: inhibition was half-maximal at 7 µM (IC50).

Compound `CN(C)CCO/N=C(\c1n[nH]c2c1C=CC(c1ccccc1)(c1ccccc1)C2)C1CC1` [Example 6-10A, cyclopropyl(6,6-diphenyl-6,7-dihydro-1H-indazol-3-yl)methanone O-(2-dimethylaminoethyl)oxime] displayed an IC50 of 4.5 µM.

Turning to `CCOC(=O)c1n[nH]c2c1C=CC(c1ccc(OC)cc1)(c1ccc(OC)cc1)C2` [Example 10-1, Ethyl 6,6-bis(4-methoxyphenyl)-6,7-dihydro-1H-indazole-3-carboxylate], the half-inhibitory concentration (IC50) lay within 15 to 20 µM.

`C1=CC(c2ccccc2)(c2ccccc2)Cc2[nH]nc(-c3cccnc3)c21` [Example 8-3, 6,6-Diphenyl-3-pyrid-3-yl-6,7-dihydro-1H-indazole] showed an IC50 of 6 µM.

In turn, `FCCO/N=C(\c1n[nH]c2c1C=CC(c1ccccc1)(c1ccccc1)C2)C1CC1` [Example 6-11A, cyclopropyl(6,6-diphenyl-6,7-dihydro-1H-indazol-3-yl)methanone O-(2-fluoroethyl)oxime] gave an IC50 of 1 µM.

Consider `CCOC(=O)c1n[nH]c2c1C=CC(c1ccccc1)(c1ccc(OC)c(OC)c1)C2` (racemic) [Example 10-2, Ethyl 6-(R,S)-6-(3,4-dimethoxyphenyl)-6-phenyl-6,7-dihydro-1H-indazole-3-carboxylate], for which inhibition was half-maximal at 4.5 µM (IC50).

Regarding `CCOC(=O)c1n[nH]c2c1C=CC(c1ccc(F)cc1)(c1ccc(F)cc1)C2` [Example 10-6, Ethyl 6,6-bis(4-fluorophenyl)-6,7-dihydro-1H-indazole-3-carboxylate], the IC50 came out at 1 µM.

The compound `O/N=C(/c1n[nH]c2c1C=CC(c1ccccc1)(c1ccc(F)cc1)C2)C1CC1` (single isomer, unassigned) [Example 10-5D, cyclopropyl[6-(4-fluorophenyl)-6-phenyl-6,7-dihydro-1H-indazol-3-yl]methanone oxime] displayed a 50% inhibitory concentration (IC50) of 1.5 µM.

Consider `COCCO/N=C(\c1n[nH]c2c1C=CC(c1ccccc1)(c1ccccc1)C2)C1CC1` [Example 6-7A, cyclopropyl(6,6-diphenyl-6,7-dihydro-1H-indazol-3-yl)methanone O-(2-methoxyethyl)oxime], for which the 50% inhibitory concentration (IC50) was found to be 1.8 µM.

Compound `O=C(c1ccccc1)c1n[nH]c2c1C=CC(c1ccccc1)(c1ccccc1)C2` [Example 5-3, (6,6-Diphenyl-6,7-dihydro-1H-indazol-3-yl)phenylmethanone] registered a half-maximal inhibitory concentration (IC50) of 12.5 µM.

Consider `COC(=O)c1[nH]nc2c1C=CC(c1ccccc1)(c1ccccc1)C2` [Example 2-2, Methyl 6,6-diphenyl-6,7-dihydro-2H-indazole-3-carboxylate], for which the concentration for half-maximal inhibition (IC50) was 1.25 µM.

In the case of `C1=CC(c2ccccc2)(c2ccccc2)Cc2[nH]nc(/C(=N/OCc3ccccc3)C3CC3)c21` [Example 6-8B, cyclopropyl(6,6-diphenyl-6,7-dihydro-1H-indazol-3-yl)methanone O-benzyloxime], the IC50 turned out to be 10 µM.

In turn, `C=CCON=C(c1n[nH]c2c1C=CC(c1ccccc1)(c1ccccc1)C2)C1CCC1` (single isomer, unassigned) [Example 6-5, Cyclobutyl(6,6-diphenyl-6,7-dihydro-1H-indazol-3-yl)methanone O-allyloxime] showed an IC50 of 3 µM.

Consider `CCOC(=O)c1n[nH]c2c1C=CC(C)(c1ccccc1)C2` (single isomer, unassigned) [Example 9-2, ethyl 6-methyl-6-phenyl-6,7-dihydro-1H-indazole-3-carboxylate], for which inhibition was half-maximal at 15 µM (IC50).

As to `O=[N+]([O-])c1ccc(CO/N=C(/c2n[nH]c3c2C=CC(c2ccccc2)(c2ccccc2)C3)C2CC2)cc1` [Example 6-9B, cyclopropyl(6,6-diphenyl-6,7-dihydro-1H-indazol-3-yl)methanone O-(4-nitrobenzyl)oxime], the concentration for half-maximal inhibition (IC50) turned out to be 2.5 µM.

As for `N#Cc1n[nH]c2c1C=CC(c1ccccc1)(c1ccccc1)C2` [Example 4, 6,6-Diphenyl-6,7-dihydro-1H-indazole-3-carbonitrile], the IC50 worked out at 23 µM.

Consider `O=[N+]([O-])c1ccc(CO/N=C(\c2n[nH]c3c2C=CC(c2ccccc2)(c2ccccc2)C3)C2CC2)cc1` [Example 6-9A, cyclopropyl(6,6-diphenyl-6,7-dihydro-1H-indazol-3-yl)methanone O-(4-nitrobenzyl)oxime], for which inhibition was half-maximal at 1.5 µM (IC50).

`C=CCO/N=C(/c1n[nH]c2c1C=CC(c1ccccc1)(c1ccccc1)C2)C1CC1` [Example 6-6B, cyclopropyl(6,6-diphenyl-6,7-dihydro-1H-indazol-3-yl)methanone O-allyloxime] registered an IC50 of 1.2 µM. This IC50 and that of the compound before are within 1.5-fold of each other.

`C1=CC(c2ccccc2)(c2ccccc2)Cc2[nH]nc(-c3ccsc3)c21` [Example 8-4, 6,6-Diphenyl-3-thiophen-3-yl-6,7-dihydro-1H-indazole] registered an IC50 of 1.2 µM.

The compound `CCOC(=O)c1n[nH]c2c1C=CC(c1ccccc1)(c1ccccc1)C2C` (stereo not drawn) [Example 13, Ethyl 7-methyl-6,6-diphenyl-6,7-dihydro-1H-indazole-3-carboxylate] came in with an IC50 of 1.5 µM.

As to `O=C(c1n[nH]c2c1C=CC(c1ccccc1)(c1ccc(F)cc1)C2)C1CC1` (single isomer, unassigned) [Example 10-4C, cyclopropyl[6-(4-fluorophenyl)-6-phenyl-6,7-dihydro-1H-indazol-3-yl]methanone], the IC50 is 1.5 µM.

`FCCO/N=C(/c1n[nH]c2c1C=CC(c1ccccc1)(c1ccccc1)C2)C1CC1` [Example 6-11B, cyclopropyl(6,6-diphenyl-6,7-dihydro-1H-indazol-3-yl)methanone O-(2-fluoroethyl)oxime] registered an IC50 of 1.3 µM. This IC50 and that of the compound before are within 1.5-fold of each other.

For `COCCO/N=C(/c1n[nH]c2c1C=CC(c1ccccc1)(c1ccccc1)C2)C1CC1` [Example 6-7B, cyclopropyl(6,6-diphenyl-6,7-dihydro-1H-indazol-3-yl)methanone O-(2-methoxyethyl)oxime], the half-inhibitory concentration (IC50) stood at 6 µM.

`Cc1ccc(S(=O)(=O)n2nc(N)c3c2CC(c2ccccc2)(c2ccccc2)C=C3)cc1` [Example 7-1, 6,6-Diphenyl-1-(4-toluenesulphonyl)-6,7-dihydro-1H-indazol-3-ylamine]: half-maximal inhibition (IC50) required 6 µM.

In the case of `CCOC(=O)c1[nH]cc2c1C=CC(c1ccccc1)(c1ccccc1)C2` [Example 11, Ethyl 5,5-diphenyl-4,5-dihydro-2H-isoindole-1-carboxylate], the concentration for half-maximal inhibition (IC50) is 6.5 µM.

`C1=CC(c2ccccc2)(c2ccccc2)Cc2[nH]nc(-c3ccccc3)c21` [Example 8-2, 3,6,6-Triphenyl-6,7-dihydro-1H-indazole] registered an IC50 of 1 µM. This IC50 lies about 6.5-fold lower than the previous one.

Compound `ON=C(c1n[nH]c2c1C=CC(c1ccccc1)(c1ccc(F)cc1)C2)C1CC1` (single isomer, unassigned) [Example 10-5B] showed an IC50 of 6 µM.

In turn, `ON=C(c1n[nH]c2c1C=CC(c1ccccc1)(c1ccccc1)C2)C1CC1` (single isomer, unassigned) [Example 6-1B, cyclopropyl(6,6-diphenyl-6,7-dihydro-1H-indazol-3-yl)methanone oxime] came in with an IC50 of 3 µM.

`CC(C)OC(=O)c1[nH]nc2c1C=CC(c1ccccc1)(c1ccccc1)C2` [Example 2-1, Isopropyl 6,6-diphenyl-6,7-dihydro-2H-indazole-3-carboxylate]: the half-inhibitory concentration (IC50) worked out at 3.7 µM.

On to `CCOC(=O)c1n[nH]c2c1C=CC(C)(c1ccccc1)C2` (racemic) [Example 9-1, Ethyl 6-(R,S)-6-methyl-6-phenyl-6,7-dihydro-1H-indazole-3-carboxylate], for which the 50% inhibitory concentration (IC50) turned out to be 18 µM.

As for `C1=CC(c2ccccc2)(c2ccccc2)Cc2[nH]nc(/C(=N\OCc3ccccc3)C3CC3)c21` [Example 6-8A, cyclopropyl(6,6-diphenyl-6,7-dihydro-1H-indazol-3-yl)methanone O-benzyloxime], half-maximal inhibition (IC50) was put at 1.3 µM.

In the case of `CN(C)CCO/N=C(/c1n[nH]c2c1C=CC(c1ccccc1)(c1ccccc1)C2)C1CC1` [Example 6-10B, cyclopropyl(6,6-diphenyl-6,7-dihydro-1H-indazol-3-yl)methanone O-(2-dimethylaminoethyl)oxime], the IC50 worked out at 12 µM. This IC50 lies about 9.2-fold higher than the previous one.

As for `O=C(c1n[nH]c2c1C=CC(c1ccccc1)(c1ccc(F)cc1)C2)C1CC1` (single isomer, unassigned) [Example 10-4B, cyclopropyl[6-(4-fluorophenyl)-6-phenyl-6,7-dihydro-1H-indazol-3-yl]methanone], inhibition was half-maximal at 0.8 µM (IC50).

`O=C(c1n[nH]c2c1C=CC(c1ccccc1)(c1ccccc1)C2)N1CC1` [Example 3-4, Aziridin-1-yl(6,6-diphenyl-6,7-dihydro-1H-indazol-3-yl)methanone] displayed an IC50 of 4.5 µM.

For the compound `O/N=C(\c1n[nH]c2c1C=CC(c1ccccc1)(c1ccc(F)cc1)C2)C1CC1` (single isomer, unassigned) [Example 10-5E, cyclopropyl[6-(4-fluorophenyl)-6-phenyl-6,7-dihydro-1H-indazol-3-yl]methanone oxime], the IC50 is 6 µM.

For the compound `CCOC(=O)c1n[nH]c2c1C=CC(c1ccccc1)(c1ccc(F)cc1)C2` (single isomer, unassigned) [Example 10-3C, ethyl 6,6-(4-fluorophenyl)-6-phenyl-6,7-dihydro-1H-indazole-3-carboxylate], the 50% inhibitory concentration (IC50) was determined as 1.5 µM.

Values taken from patent publication US7119115B2, “Indazole or indole derivatives, and use thereof in human medicine and more particularly in oncology” (Aventis Pharma S.A., priority 2001, dated 2006).
